From ChEMBL document CHEMBL1142509, “Building skeletally diverse architectures on the Indoline Scaffold: the discovery of a chemical probe of focal adhesion kinase signaling networks” (Bioorg Med Chem, 2008) come the findings set out here.

The source made the active and inactive calls. The calls are words filed in the database; no cut-off is given here.

For one assay, the species on record is Homo sapiens. As to the kind of experiment: Inhibition of human MDA-MB-231M cell motility assessed as remaining wound area at 25 uM after 24 hrs by wound healing assay. Format: functional.
Assay [1] is described as follows: Antiproliferative activity against human MDA-MB-231M cells after 96 hrs by MTT assay. Format: functional, cell-based. In general terms: Tetrazolium assays rely on reduction of a dye to a coloured formazan, in cell work by metabolically active cells.
In assay [2] the target is Focal adhesion kinase 1 (Homo sapiens) (UniProt Q05397). As to the kind of experiment: Inhibition of human FAK at 30 uM.
The next assay deals with MDA-MB-231. Briefly: Antiinvasive activity against human MDA-MB-231 cells at 25 uM. Format: functional, cell-based.
In assay [3] the target is Focal adhesion kinase 1 (Homo sapiens) (UniProt Q05397). As to the kind of experiment: Inhibition of FAK in human MDA-MB-231M cells assessed as phosphorylated tyrosine 397 levels at 25 uM after 1 hr by Western blot. Format: cell-based. (A western blot detects proteins with antibodies after separation by electrophoresis.)

Focal adhesion kinase 1 (Homo sapiens), sequence (Q05397 2-1052 limits assumed): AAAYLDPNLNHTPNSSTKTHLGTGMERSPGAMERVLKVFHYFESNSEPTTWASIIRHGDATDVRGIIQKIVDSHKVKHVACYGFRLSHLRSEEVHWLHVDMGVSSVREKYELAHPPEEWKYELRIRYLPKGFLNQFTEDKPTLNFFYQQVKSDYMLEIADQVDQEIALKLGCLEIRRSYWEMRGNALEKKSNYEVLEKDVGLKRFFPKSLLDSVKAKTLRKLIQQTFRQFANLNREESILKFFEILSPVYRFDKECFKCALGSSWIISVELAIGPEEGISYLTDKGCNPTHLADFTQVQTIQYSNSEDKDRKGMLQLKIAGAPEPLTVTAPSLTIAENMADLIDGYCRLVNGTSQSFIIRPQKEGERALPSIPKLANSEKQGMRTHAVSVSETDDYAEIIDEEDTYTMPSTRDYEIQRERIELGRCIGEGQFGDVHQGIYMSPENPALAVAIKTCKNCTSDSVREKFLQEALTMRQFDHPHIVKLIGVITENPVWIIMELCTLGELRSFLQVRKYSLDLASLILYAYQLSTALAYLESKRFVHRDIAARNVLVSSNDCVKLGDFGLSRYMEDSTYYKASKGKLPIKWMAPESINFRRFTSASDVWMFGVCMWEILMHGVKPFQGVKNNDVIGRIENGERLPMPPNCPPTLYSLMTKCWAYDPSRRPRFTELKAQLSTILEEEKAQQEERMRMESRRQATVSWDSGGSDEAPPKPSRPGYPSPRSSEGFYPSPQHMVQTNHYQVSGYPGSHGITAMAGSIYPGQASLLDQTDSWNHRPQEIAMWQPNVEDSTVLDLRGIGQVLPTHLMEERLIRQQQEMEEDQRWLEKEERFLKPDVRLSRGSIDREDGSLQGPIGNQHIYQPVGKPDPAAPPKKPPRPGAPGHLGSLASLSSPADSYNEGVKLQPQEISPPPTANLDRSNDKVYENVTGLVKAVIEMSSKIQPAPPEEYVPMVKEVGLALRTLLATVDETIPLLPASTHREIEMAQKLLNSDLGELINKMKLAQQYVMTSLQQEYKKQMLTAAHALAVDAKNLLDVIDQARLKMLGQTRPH

As to `C=CCOC(=O)N1c2ccc(OCCCOC3CCCCO3)cc2C[C@H]1[C@@H](CC=C)OC(C)=O` (mixture of isomers), the result (in the assay listed under Homo sapiens; in the assay with MDA-MB-231; in assay [3]) was Active. In addition, the IC50 in assay [1] was determined as 38.7 µM. The same molecule came in with an inhibition in assay [2] of 30%.

What is called IC50 is the concentration needed to halve the response being measured. Read a low IC50 as inhibition by little substance. A word on the inhibition: it is the relative decrease from the control value, in per cent.
